{"source": "paper PMC4721923", "about": "(PLoS ONE, 2015)", "key": {"[1]": {"system": "U-937 cells (histiocytic lymphoma)", "experiment": "Chemosensitivity assay (MTT-assay), U-937", "format": "cell-based, human", "details": "96 hours of incubation, mean ± SEM", "protocol": "(§1) Depending on the characteristics of the cells, two different assays were performed. For adherently growing cells (HaCaT, HT-29, NCI-H460, SK-MEL-3, MG-63, Capan-1), cytotoxic and cytocidal effects were determined in the crystal violet assay, whereas for loosely adherent cells (LNCaP, SK-ES-1) and cells growing in suspension (HEL 92.1.7, Jurkat, U-937) the MTT-assay was used with minor modifications. In brief, 1.5 · 10^3 (HaCaT, HT-29, NCI-H460, SK-MEL-3, MG-63, Capan-1) or 5 · 10^3 (Jurkat, U-937, HEL92.1.7, LNCaP, SK-ES-1) cells per well were seeded into flat-bottom 96-well plates (Sarstedt, Nümbrecht, Germany). All compounds were used as solutions prepared in DMSO and tested at final concentrations (8 replicates per concentration) of 1, 3, 10, 30 and 50 μM. In case of the vehicle control and test compounds, the final DMSO concentration amounted to 0.1%. Absorbance was measured at 580 nm in a 96-well plate reader (GENios pro microplate reader, Tecan, Salzburg, Austria). Effects were quantified as previously described for both assays."}, "[2]": {"system": "MG-63 cells (osteosarcoma)", "experiment": "Chemosensitivity assay (crystal violet assay), MG-63", "format": "cell-based, human", "details": "for IC50: 96 hours of incubation, crystal violet assay, mean ± SEM", "protocol": "as §1"}, "p53 in HT-29 cells": {"system": "p53 in HT-29 cells", "experiment": "p53 expression by immunoblotting, HT-29", "format": "cell-based, human", "details": "HT-29 nuclear extracts; 10 μM; 24 hours", "protocol": "The expression of the tumor suppressor p53 by NCI-H460 and HT-29 cells was determined after incubating the cells with compounds 1, 2, 4 and 5 at different concentrations for 24 hours. The cells (from a 10-cm culture dish, 70% confluency) were washed twice with PBS and harvested by scraping after addition of ice-cold buffer A (10 mM HEPES pH = 7.9, 10 mM KCl, 0.1 mM EDTA, 0.1 mM EGTA, protease inhibitor mix (Sigma-Aldrich)). After adding Nonidet P-40 (NP-40) (Sigma, Taufkirchen, Germany) to a final concentration of 1%, the cell suspensions were vortexed and subsequently centrifuged at 13000 g and 4°C for 30 seconds. The pellets were re-suspended in buffer B (buffer A + 400 mM NaCl, 1% NP-40) and gently agitated using a Sarmix M2000 (Sarstedt, Nümbrecht, Germany) at 4°C for 15 min, followed by centrifugation (13000 g, 4°C, 5 min; Microfuge; Eppendorf, Hamburg, Germany). The concentration of soluble protein was determined according to Bradford using the Bio-Rad Protein Assay (Bio-Rad Laboratories, Munich, Germany).\nAn amount of 30 μg total protein of each sample and 8 μL of a biotinylated molecular weight standard (1:6 dilution) (Cell Signaling, Danvers, MA, USA) was separated by SDS-PAGE (12% gel) and afterwards electroblotted (150 V, 30 min) to nitrocellulose membrane (Peqlab, Erlangen, Germany). To prevent unspecific binding, the membranes were treated with milk powder (5% (m/v) in buffer (150 mM NaCl, 20 mM Tris, 0.1% Tween 20, pH = 7.6)) before incubation with anti-p53 rabbit mAb (dilution 1:1000) (Cell Signaling) and anti-histone H2B Ab (dilution 1:1000) (Cell Signaling) as loading control at 4°C for 14 hours. The primary antibodies and the “protein ladder” were simultaneously detected with a horseradish peroxidase (HRP)-coupled donkey anti rabbit mAb (dilution 1:1000) (Santa Cruz biotechnology, Heidelberg, Germany) or the anti-biotin HRP-coupled antibody (dilution 1:5000) (Cell Signaling), respectively. The incubation with the secondary antibody was performed at room temperature for 1 hour. The bands were detected by […] using the Pierce ECL Western Blotting Substrate (Thermo Scientific, Dreieich, Germany). After exposure, the x-ray film (Amersham Hyperfilm ECL, GE Healthcare, München, Germany) was developed (CAWOMAT 2000 IR, CAWO, Schrobenhausen, Germany) and analyzed using a GS-710 imaging densitometer and Quantity One V. 4 software (Bio-Rad Laboratories, Munich, Germany)."}, "OCT3": {"biological_target": "T1, OCT3 (Homo sapiens, UniProt O75751)", "T1 construct": "expressed in transfected cells; host or cells: HEK293 (HEK-OCT3)", "T1 sequence (O75751 1-556)": "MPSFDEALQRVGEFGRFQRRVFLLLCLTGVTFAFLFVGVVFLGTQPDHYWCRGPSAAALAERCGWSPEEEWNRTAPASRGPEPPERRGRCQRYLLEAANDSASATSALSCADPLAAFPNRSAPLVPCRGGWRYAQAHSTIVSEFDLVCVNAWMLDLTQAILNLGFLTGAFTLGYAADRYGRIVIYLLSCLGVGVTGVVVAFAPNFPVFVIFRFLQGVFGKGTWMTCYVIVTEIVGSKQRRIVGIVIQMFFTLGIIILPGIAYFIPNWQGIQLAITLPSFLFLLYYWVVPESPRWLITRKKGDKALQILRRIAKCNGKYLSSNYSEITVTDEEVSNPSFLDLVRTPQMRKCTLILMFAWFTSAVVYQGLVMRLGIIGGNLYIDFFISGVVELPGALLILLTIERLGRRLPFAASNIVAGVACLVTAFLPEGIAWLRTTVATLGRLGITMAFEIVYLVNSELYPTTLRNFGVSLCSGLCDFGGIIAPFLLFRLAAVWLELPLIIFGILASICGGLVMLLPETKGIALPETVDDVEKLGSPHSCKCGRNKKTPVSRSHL", "experiment": "Flow cytometric ASP+-uptake inhibition, HEK-OCT3", "format": "cell-based", "details": "for potency relative to TPA at OCT3: from IC50 values, p ≤ 0.05", "protocol": "The previously described fluorescent substrate of organic cation transporters, 4-(4-dimethylaminostyryl)-N-methylpyridinium (ASP^+), was used to determine the function of OCT1 and OCT3 by flow cytometry in the absence and the presence of bendamustine and selected bendamustine esters. HEK293 cells expressing the transporter of interest were trypsinized and washed twice with PBS, prior to re-suspension of 0.5 · 10^6 cells in 500 μL of PBS containing 2% (v/v) FCS. The cells were incubated with ASP^+ (100 μM stock solution in PBS containing 10% DMSO) for 5 minutes, allowing for cellular accumulation, and subsequently analyzed with a FACSCalibur flow cytometer. ASP^+ was excited at 488 nm and the fluorescence was measured using a 530/30 nm and a 585/42 band-pass filter. At least 1 · 10^4 single cells were analyzed by appropriate FSC/SSC gating.\nThe cells were pre-incubated with the respective test compound at different concentrations at room temperature for 10 minutes. Afterwards, ASP^+ was added to a final concentration of 1 μM, and the samples were incubated at 37°C in the dark for 5 minutes. Subsequently, the cells were washed, re-suspended in ice-cold PBS/FCS and stored on ice in the dark until measurement.\nThe normalized mean fluorescence intensities of the OCT expressing cells, set to 100% in the absence of an inhibitor, were calculated by subtracting the mean fluorescence intensity of unspecific ASP^+ uptake into HEK-Co control cells. The normalized fluorescence intensities in the presence of an inhibitor were plotted against the logarithm of the concentrations of the test compounds to calculate IC50 values. The “log (inhibitor) vs. normalized response-variable slope” equation of GraphPad Prism 5.01 was used for this purpose."}}}
{"molecule": "Cn1c(CCCC(=O)O)nc2cc(N(CCCl)CCCl)ccc21", "note": "[Compound 1, bendamustine, reference compound]", "values": [{"measurement": "IC50", "setting": "[1]", "result": "83.4 ± 8.5", "unit": "µM"}, {"measurement": "IC50", "setting": "[1]; Homo sapiens, U-937, 96 h", "result": "> 80", "unit": "µM"}, {"measurement": "IC50", "setting": "[2]", "result": "55.8 ± 1.9", "unit": "µM"}, {"measurement": "IC50", "setting": "[2]; Homo sapiens, MG-63, 96 h", "result": "~56", "unit": "µM"}, {"measurement": "concentrations with cytocidal drug effects", "setting": "[2]; kinetic assay, long-term exposure (S6 Fig)", "result": "above 30 μM"}, {"measurement": "p53 expression", "setting": "p53 in HT-29 cells", "result": "slight induction"}, {"measurement": "IC50", "setting": "OCT3", "result": "> 200", "unit": "µM"}, {"measurement": "inhibition at 200 µM", "setting": "OCT3; read-out: inhibition of OCT3", "result": 37, "unit": "%"}]}
{"molecule": "COC(=O)CCCc1nc2cc(N(CCCl)CCCl)ccc2n1C", "note": "[Compound 2]", "values": [{"measurement": "IC50", "setting": "[1]; Homo sapiens, U-937, 96 h", "result": "1.8 ± 0.1", "unit": "µM"}, {"measurement": "IC50", "setting": "[2]; Homo sapiens, MG-63, 96 h", "result": "1.9 ± 0.1", "unit": "µM"}, {"measurement": "p53 expression", "setting": "p53 in HT-29 cells", "result": "increased the expression of p53"}, {"measurement": "IC50", "setting": "OCT3", "result": "5.1 ± 1.4", "unit": "µM"}, {"measurement": "potency relative to TPA at OCT3", "setting": "OCT3", "result": "approximately four"}]}
{"molecule": "Cn1c(CCCC(=O)OCCN2CCOCC2)nc2cc(N(CCCl)CCCl)ccc21", "note": "[Compound 4]", "values": [{"measurement": "IC50", "setting": "[1]; Homo sapiens, U-937, 96 h", "result": "3.2 ± 0.96", "unit": "µM"}, {"measurement": "IC50", "setting": "[2]; Homo sapiens, MG-63, 96 h", "result": "3.5 ± 0.1", "unit": "µM"}, {"measurement": "p53 expression", "setting": "p53 in HT-29 cells", "result": "increased the expression of p53"}, {"measurement": "IC50", "setting": "OCT3", "result": "5.1 ± 0.02", "unit": "µM"}, {"measurement": "potency relative to TPA at OCT3", "setting": "OCT3", "result": "approximately four"}]}
{"molecule": "Cn1c(CCCC(=O)OCCN2CCCC2)nc2cc(N(CCCl)CCCl)ccc21", "note": "[Compound 5]", "values": [{"measurement": "IC50", "setting": "[1]; Homo sapiens, U-937, 96 h", "result": "0.83 ± 0.19", "unit": "µM"}, {"measurement": "IC50", "setting": "[2]; Homo sapiens, MG-63, 96 h", "result": "0.38 ± 0.06", "unit": "µM"}, {"measurement": "p53 expression", "setting": "p53 in HT-29 cells", "result": "increased the expression of p53"}, {"measurement": "IC50", "setting": "OCT3", "result": "3.41 ± 0.16", "unit": "µM"}, {"measurement": "potency relative to TPA at OCT3", "setting": "OCT3", "result": "approximately four"}]}
